Assay results published in patent US8410153B2, “Naphthalene isoxazoline invertebrate pest control agents” (E.I. du Pont de Nemours and Company, priority 2007, dated 2013).

Key:
Format in all cases: in vivo
[1] = test system: western flower thrips (Frankliniella occidentalis); test: Test E: control of western flower thrips on Soleil bean plant, contact and/or systemic; conditions: held 6 days
Procedure, shortened: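 5–7-day-old Soleil bean plants were sprayed at 250 or 50 ppm in 10% acetone/90% water with 300 ppm X-77 surfactant, three replicates. After drying 1 h, 22–27 adult thrips were added per unit. Mortality and plant damage were rated after 6 days at 25 °C and 45–55% RH.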

[2] = test system: fall armyworm (Spodoptera frugiperda); test: Test B: control of fall armyworm on corn (maize) plant, foliar spray; conditions: sprayed at 50 ppm
Procedure, shortened: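 4-5-day-old corn plants pre-infested with 10-15 1-day-old larvae on insect diet, then sprayed with compound at 50 ppm in 10% acetone/90% water with 300 ppm surfactant, three replicates. Held 6 days at 25° C, 70% RH; feeding damage assessed visually and mortality rated.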

[3] = test system: diamondback moth (Plutella xylostella); test: Test A: control of diamondback moth on radish plant, foliar spray; conditions: sprayed at 50 ppm, held 6 days
Procedure, shortened: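 Radish plants 12–14 days old, pre-infested with about 50 neonate larvae, sprayed at 50 ppm in 10% acetone/water with 300 ppm X-77 surfactant; three replicates. After 6 days at 25° C and 70% RH, feeding damage was scored visually and mortality counted.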

Measured: levels of control efficacy (20% or less feeding damage or 80% or more mortality)

CCNC(=O)CNC(=O)c1ccc(C2=NOC(c3cc(Cl)cc(C(F)(F)F)c3)(C(F)(F)F)C2)c2ccccc12 (centres unmarked) [Compound 119]
very good to excellent: [1]; sprayed at 50 ppm | [1]; sprayed at 250 ppm | [2] | [3]

CC(C)(C)CNC(=O)CNC(=O)c1ccc(C2=NOC(c3cc(Cl)cc(C(F)(F)F)c3)(C(F)(F)F)C2)c2ccccc12 (centres unmarked) [Compound 120]
very good to excellent: [1]; sprayed at 50 ppm | [1]; sprayed at 250 ppm | [2] | [3]

CC(NC(=O)c1ccc(C2=NOC(c3cc(C(F)(F)F)cc(C(F)(F)F)c3)(C(F)(F)F)C2)c2ccccc12)C(=O)NC(C)C(F)(F)F (centres unmarked) [Compound 121]
very good to excellent: [1]; sprayed at 250 ppm | [2] | [3]
